Source: US20050048093A1, “Methods and reagents for the control of infestations of parasites” (priority 2001, published 2005)
“And” between values parts separate entries of the source, which are not always exact repeats. Identical values can stand only once.

Tests used:
Format in all cases: in vivo
Varroa destructor [1] = assay: Inhibition of the reproduction of V. destructor in artificial (gelatine) cells; settings: for Inhibitory activity in respect of varroa reproduction / Number of offspring per varroa female in the artificial cells treated (Mean) / Number of offspring per varroa female in the artificial cells treated: Example 5; for Inhibitory activity in respect of varroa reproduction: artificial cells, result in words; for Number of offspring per varroa female in the artificial cells treated (Mean) / Number of offspring per varroa female in the artificial cells treated: same procedure as Example 1; for Number of offspring per varroa female in the artificial cells treated (Mean): mean of three replications; for Number of offspring per varroa female in the artificial cells treated: single replications 1-3
Description: In Example 1, a chemical composition is made up of a solution of heptadecene in hexane, with a double bond in position 8 and cis configuration ([…]). The cis-8-heptadecene in a solution of hexane causes a reduction in reproduction, ie a reduction in the number of offspring produced by the Varroa destructor mite, raised in a laboratory environment, on bee larvae in gelatine cells. For verification of the activity of cis-8-C17H34, two groups of gelatine cells were prepared, with a diameter of 6.5 mm. In each of the two cells of the first group, 10 […] 100 ng of cis-8-heptadecene was deposited. This group was defined as the treated group. In the cells of the second group, 10 […] active compound was deposited. This group was defined as the control group. The substances were deposited into each cell using a micropipette. The solvent was left to evaporate and then one varroa and one bee larva from natural, just-capped cells were introduced into each cell in each of the groups. The varroa was thus cultivated on the bee larva, during the metamorphosis of the larva, as happens in nature. Cultivation took place at 35° C. and 75% relative humidity. After ten days Oust before the bee reached its adult state), the cells were opened and inspected by microscope and the offspring produced by each varroa female were counted. The experiment described above was conducted four times; in total, approximately 80 cells were used per group. Following the same procedure used in Example 1, a chemical composition made up of a solution of a heptadecene isomer as in Example 1, in this case the isomer with a double bond in position 6 (cis-6-C17H34), and a second composition containing a solution of cis-8-heptadecene (cis-8-C17H34) were applied.

Varroa destructor [2] = assay: Inhibition of the reproduction of V. destructor via dispensing of cis-8-heptadecene in bee colonies; settings: for Number of offspring of V. destructor inside the capped cells of Group B (10 μg) / Number of offspring of V. destructor inside the capped cells of Group A (100 μg): changed weekly
Description: In Example 3, ten nuclei were prepared, ie bee colonies with a reduced number of individuals, in the order of several thousand. Each nucleus was placed in a hive with dimensions smaller than those of a standard hive. These nuclei were divided into three groups—A and B, each with three nuclei, and C, with four nuclei.
Into each hive, a dispensing mechanism comprising a nylon grid, with a 100 μm mesh, square and with a side measurement of 10 cm, supported by a sheet of aluminium, was introduced. Solutions of cis-8-heptadecene in various concentrations in 100 μl of hexane were placed on each of these grids. The solvent was left to evaporate before each test. Group A was treated with 100 μg of cis-8-C17H34 in 100 μl of hexane, Group B with 10 μg of cis-8-C17H34 in […], and Group C with 100 μl of hexane without the addition of cis-8-C17H34 (control grou). The dispensing mchanism was changed in each hive each week; and treatment lasted for three weeks. At the end of the test, the number of V. destructor individuals present on the adult bees and in the brood cells was determined. The brood cells were removed from the hives, opened and inspected. Finally, the V. destructor individuals killed by the treatment were counted. The numbers of offspring of the V. destructor individuals present in the brood cells were calculated, separately for each developmental stage of the bees, and specifically pink-eyed pupae (pp), black-eyed pupae (pd) and pigmented pupae and adult bees (ppd).

Varroa destructor [3] = assay: Inhibition of the reproduction of V. destructor in natural cells; settings: Example 2, 10 days in hive
Description: Example 2 was conducted in the same way as Example 1, except for the fact that the V. destructor mite was cultivated on bee larvae in natural cells from a beehive. In this example, too, the effect of 8-heptadecene on the reduction in the mean number of offspring produced by a female V. destructor in cells of natural honeycomb, kept in the hive, was verified.
For verification of the activity of cis-8-C17H34, two groups of natural cells were prepared. In the cells of the first group, referred to as the treated group, 1 μl of acetone containing 100 ng of cis-8-heptadecene was deposited. In the cells of the second group, the control group, 1 μl of the solvent alone, ie acetone, was deposited. The natural cells were cells just capped with honeycomb taken from infested hives and the product was deposited via injection of the solution using a microsyringe through the cell cap. Following treatment, the honeycomb was returned to the hive from which it was taken. After ten days, the honeycombs used for the experiment were brought to the laboratory; both the treated and control cells were opened and inspected. In the infested cells, the mean number of offspring produced by each varroa was counted. The experiment was replicated six times: in total, approximately 140 infested cells were examined for each group.

SMILES | Inhibitory activity in respect of varroa reproduction (Varroa destructor [1]) | Number of offspring per varroa female in the artificial cells treated (Mean) (Varroa destructor [1]) | Number of offspring per varroa female in the artificial cells treated (Varroa destructor [1]; listed as cis-6-C17H34) | Number of offspring per varroa female in the artificial cells treated with cis-8-heptadecene (Mean) (Varroa destructor [1]; Example 1, 100 ng per gelatine cell, 10 days, mean of four replications) | Number of offspring per varroa female in the artificial cells treated (Varroa destructor [1]; listed as cis-8-C17H34) | Number of offspring of V. destructor inside the capped cells of Group B (10 μg) (Varroa destructor [2]; 10 μg per dispenser, three weeks, PD: black-eyed pupae) | Number of offspring of V. destructor inside the capped cells of Group B (10 μg) (Varroa destructor [2]; 10 μg per dispenser, three weeks, PDD [sic]: pigmented pupae et adults) | Number of offspring of V. destructor inside the capped cells of Group B (10 μg) (Varroa destructor [2]; 10 μg per dispenser, three weeks, PP: pink-eyed pupae) | Percentage distribution of V. destructor in Group B (10 μg): Varroa in the reproductive phase (Varroa destructor [2]; 10 μg per dispenser, three weeks, adult female varroa in brood cells) [Percentage] | Percentage distribution of V. destructor in Group B (10 μg): Varroa in the phoretic phase (Varroa destructor [2]; 10 μg per dispenser, three weeks, adult female varroa on adult bees) [Percentage] | Number of offspring of V. destructor inside the capped cells of Group A (100 μg) (Varroa destructor [2]; 100 μg per dispenser, three weeks, PD: black-eyed pupae) | Number of offspring of V. destructor inside the capped cells of Group A (100 μg) (Varroa destructor [2]; 100 μg per dispenser, three weeks, PDD [sic]: pigmented pupae et adults) | Number of offspring of V. destructor inside the capped cells of Group A (100 μg) (Varroa destructor [2]; 100 μg per dispenser, three weeks, PP: pink-eyed pupae) | Percentage distribution of V. destructor in Group A (100 μg): Varroa in the reproductive phase (Varroa destructor [2]; 100 μg per dispenser, three weeks, adult female varroa in brood cells) [Percentage] | Percentage distribution of V. destructor in Group A (100 μg): Varroa in the phoretic phase (Varroa destructor [2]; 100 μg per dispenser, three weeks, adult female varroa on adult bees) [Percentage] | Reproduction of V. destructor in the cells of the hives (Varroa destructor [2]; Groups A (100 μg) and B (10 μg), as from the black-eyed pupa stage (pd), result in words) | Number of offspring per varroa female in the natural cells treated with cis-8-heptadecene (Varroa destructor [3]; 100 ng in 1 μl acetone per natural capped cell, single replications 1-6) | Number of offspring per varroa female in the natural cells treated with cis-8-heptadecene (Mean) (Varroa destructor [3]; 100 ng per natural capped cell, mean of six replications)
CCCCC/C=C\CCCCCCCCCC [cis-6-heptadecene] | demonstrated inhibitory activity | 2.1 | 2.4 and 2.3 and 1.7 | – | – | – | – | – | – | – | – | – | – | – | – | – | – | –
CCCCCCC/C=C\CCCCCCCC [cis-8-heptadecene] | demonstrated inhibitory activity | 1.9 | – | 1.7 | 2.0 and 1.5 | 2.65 | 3.20 | 2 | 60 | 40 | 2.63 | 3.29 | 2 | 50 | 50 | reduction, albeit modest | 3.2 and 2.5 and 3.6 and 3.1 and 3.7 | 3.2
